Data reported in ChEMBL document CHEMBL4330141, “Synthesis and evaluation of novel substituted 1,2,3-triazolyldihydroquinolines as promising antitubercular agents” (Bioorg Med Chem Lett, 2019).
Converted amounts (≈) assume the structure as drawn.

Columns and labels:
[1] = test system: HEK-293T; experiment: Cytotoxicity against HEK293T cells after 48 hrs by MTT assay; assay type: cell-based; conditions: human
[2] = test system: Mycobacterium tuberculosis; experiment: Antitubercular activity against Mycobacterium tuberculosis H37Rv measured after 1 week by microplate alamar blue assay; assay type: functional; conditions: 168 h
[3] = Protective index, ratio of MNTD50 for HEK293T cells to MIC for Mycobacterium tuberculosis H37Rv

Structure (SMILES)	MNTD50 [1] [µg/mL]	MIC [2] [µg/mL]	Ratio [3]
FC(F)(F)c1ccc(Cn2cc(C3=C(Cl)c4ccc(-c5cccs5)nc4CC3)nn2)cc1	86	6.25 (≈ 13.2 µM)	13.76
O=[N+]([O-])c1ccc(Cn2cc(C3=C(Cl)c4ccc(-c5cccs5)nc4CC3)nn2)cc1	69	12.5 (≈ 27.8 µM)	5.52
COc1cc(Cn2cc(C3=C(Cl)c4ccc(-c5cccs5)nc4CC3)nn2)cc(OC)c1OC	74	12.5 (≈ 25.3 µM)	5.92
ClC1=C(c2cn(Cc3ccc(Br)cc3)nn2)CCc2nc(-c3cccs3)ccc21	88	3.12 (≈ 6.45 µM)	28.02
CCc1ccc(Cn2cc(C3=C(Cl)c4ccc(-c5cccs5)nc4CC3)nn2)cc1		25 (≈ 57.7 µM)	
COc1cccc(Cn2cc(C3=C(Cl)c4ccc(-c5cccs5)nc4CC3)nn2)c1	98	3.12 (≈ 7.17 µM)	31.4
ClC1=C(c2cn(Cc3ccc(Cl)c(Cl)c3)nn2)CCc2nc(-c3cccs3)ccc21		25 (≈ 52.8 µM)	
N#CC1=C(Cl)c2ccc(-c3cccs3)nc2CC1		25 (≈ 91.7 µM)	
Cc1ccc(Cn2cc(C3=C(Cl)c4ccc(-c5cccs5)nc4CC3)nn2)cc1		25 (≈ 59.7 µM)	
COc1ccc(Cn2cc(C3=C(Cl)c4ccc(-c5cccs5)nc4CC3)nn2)cc1		25 (≈ 57.5 µM)	
Fc1ccc(Cn2cc(C3=C(Cl)c4ccc(-c5cccs5)nc4CC3)nn2)cc1		25 (≈ 59.1 µM)	
Cc1cc(C)c(Cn2cc(C3=C(Cl)c4ccc(-c5cccs5)nc4CC3)nn2)c(C)c1		25 (≈ 55.9 µM)	
ClC1=C(c2cn(Cc3cccc(Br)c3)nn2)CCc2nc(-c3cccs3)ccc21		25 (≈ 51.7 µM)	
ClC1=C(c2cn(Cc3ccccc3)nn2)CCc2nc(-c3cccs3)ccc21	112	1.56 (≈ 3.85 µM)	71.7
Fc1ccc(Cn2cc(C3=C(Cl)c4ccc(-c5cccs5)nc4CC3)nn2)c(Cl)c1		25 (≈ 54.7 µM)	
Fc1cc(Br)ccc1Cn1cc(C2=C(Cl)c3ccc(-c4cccs4)nc3CC2)nn1		25 (≈ 49.8 µM)	
O=C(O)c1cn(C2CC2)c2cc(N3CCNCC3)c(F)cc2c1=O [CIPROFLOXACIN]		1.56 (≈ 4.71 µM)	
CC[C@@H](CO)NCCN[C@@H](CC)CO [ETHAMBUTOL]		3.13 (≈ 15.3 µM)	
NNC(=O)c1ccncc1 [ISONIAZID]	32	0.1 (≈ 0.729 µM)	
CO[C@H]1/C=C/O[C@@]2(C)Oc3c(C)c(O)c4c(O)c(c(/C=N/N5CCN(C)CC5)c(O)c4c3C2=O)NC(=O)/C(C)=C\C=C\[C@H](C)[C@H](O)[C@@H](C)[C@@H](O)[C@@H](C)[C@H](OC(C)=O)[C@@H]1C [RIFAMPIN]		0.2 (≈ 0.243 µM)	
